Experiments:
Type in all cases: cell-based
HCC1806 [1] = experiment: Growth inhibition assay for Breast Cancer (BC) Cell lines; conditions: Homo sapiens; HCC1806, TN; 96 hours, Cell Titer-Glo
Procedure: (§1) Growth inhibition assay for Breast Cancer (BC) Cell lines. Compounds 1 (a TOR kinase inhibitor set forth herein having molecular formula C16H16N8O) and 2 (a TOR kinase inhibitor set forth herein having molecular formula C17H18N8O2) were dissolved in dimethyl sulfoxide (DMSO) to prepare a 10 mM stock solution. A serial titration was performed to produce a working concentration range of 1.5 µM to 10 mM. Aliquots to produce final concentrations of 1.5 nM to 10 µM were spotted via an acoustic dispenser (EDC ATS-100) into an empty 384-well plate. Compounds 1 and 2 were spotted in a 10-point serial dilution fashion (3-fold dilution) in duplicate within the plate. The DMSO concentration was kept constant for a final assay concentration of 0.1% DMSO. Plates were replicated for use with different cell lines and testing periods. After compound plate replication, all plates were sealed (Agilent ThermoLoc) and stored at -20° C. for up to 1 month. […] When ready for testing, plates were removed from the freezer, thawed, and unsealed just prior to the addition of the test cells. Prior to testing, cells were grown and expanded in culture flasks to provide sufficient amounts of starting material. Cells were then diluted to the appropriate densities and added directly to the compound-spotted 384-well plates. Cells were allowed to grow for 96 hours at 37° C./5% CO2. At the time when compound was added (t0), initial cell number was assessed via a viability assay (Cell Titer-Glo) by quantifying the level of luminescence generated by ATP present in viable cells. After 96 hours, cell viability of compound-treated cells was assessed via Cell Titer-Glo and luminescence measurement. Cell lines were assayed for growth inhibition by Compounds 1 and 2 in at least 3 independent tests. A control cell line (the lung tumor cell line, A549) was included in each of the assays. The compound response against this control cell line was monitored closely to enable comparison of the data generated through the assay period. All data were normalized and presented as a percentage of the DMSO-treated cells. Results were then expressed as a GI50 value. The GI50 value corrects for the cell count at time zero.

HCC70 [2] = experiment: as above; conditions: Homo sapiens; HCC70, TN; 96 hours, Cell Titer-Glo
Procedure: as §1

MB157 [3] = experiment: as above; conditions: MB157, TN; 96 hours, Cell Titer-Glo
Procedure: as §1

MDA-MB-468 [4] = experiment: as above; conditions: Homo sapiens; MDA-MB-468, TN; 96 hours, Cell Titer-Glo
Procedure: as §1

BT-20 = experiment: Apoptosis assay for BC Cell lines (Caspase 3/7-Glo); conditions: BT-20, TN; 24 hours
Procedure: (§2) Apoptosis assay for BC Cell lines. Prior to testing, cells were grown and expanded in culture flasks to provide sufficient amounts of starting material. Cells were then diluted to their desired densities and added directly to compound-spotted 384-well plates. Cells were allowed to grow for 24 hours in 5% CO2 at 37° C. The apoptotic response was assessed by quantifying the activities of caspase 3 and caspase 7 (Caspase 3/7-Glo) in treated cells and control cells at the 24-hour time point. All data was normalized and represented as a value relative to the DMSO-treated cells. Results were then expressed as CalX, which is the minimum compound concentration required to double the levels of caspase 3/7 relative to those of the DMSO-treated cells during their treatment period.

BT-549 = experiment: as above; conditions: BT-549, TN; 24 hours
Procedure: as §2

CAL-120 = experiment: as above; conditions: CAL-120, TN; 24 hours
Procedure: as §2

CAL-148 = experiment: as above; conditions: CAL-148, TN; 24 hours
Procedure: as §2

CAL-51 = experiment: as above; conditions: CAL-51, TN; 24 hours
Procedure: as §2

CAL-85-1 = experiment: as above; conditions: CAL-85-1, TN; 24 hours
Procedure: as §2

DU4475 = experiment: as above; conditions: DU4475, TN; 24 hours
Procedure: as §2

HCC1143 = experiment: as above; conditions: HCC1143, TN; 24 hours
Procedure: as §2

HCC1187 = experiment: as above; conditions: HCC1187, TN; 24 hours
Procedure: as §2

HCC1806 [5] = experiment: as above; conditions: HCC1806, TN; 24 hours
Procedure: as §2

HCC1937 = experiment: as above; conditions: HCC1937, TN; 24 hours
Procedure: as §2

HCC2157 = experiment: as above; conditions: HCC2157, TN; 24 hours
Procedure: as §2

HCC38 = experiment: as above; conditions: HCC38, TN; 24 hours
Procedure: as §2

HCC70 [6] = experiment: as above; conditions: HCC70, TN; 24 hours
Procedure: as §2

HDQ-P1 = experiment: as above; conditions: HDQ-P1, TN; 24 hours
Procedure: as §2

HS578T = experiment: as above; conditions: TN, 24 hours
Procedure: as §2

MB157 [7] = experiment: as above; conditions: MB157, TN; 24 hours
Procedure: as §2

MDA-MB-157 = experiment: as above; conditions: MDA-MB-157, TN; 24 hours
Procedure: as §2

MDA-MB-231 = experiment: as above; conditions: MDA-MB-231, TN; 24 hours
Procedure: as §2

MDA-MB-436 = experiment: as above; conditions: MDA-MB-436, TN; 24 hours
Procedure: as §2

MDA-MB-468 [8] = experiment: as above; conditions: MDA-MB-468, TN; 24 hours
Procedure: as §2

MT-3 = experiment: as above; conditions: MT-3, TN; 24 hours
Procedure: as §2

- GI50 (HCC1806 [1]): 187 nM
- GI50 (MB157 [3]): 346 nM
- GI50 (MDA-MB-468 [4]): 87.2 nM
Compound: CCN1C(=O)CNc2ncc(-c3ccc(-c4nc[nH]n4)nc3C)nc21 [Compound 1, 1-ethyl-7-(2-methyl-6-(1H-1,2,4-triazol-3-yl)pyridin-3-yl)-3,4-dihydropyrazino[2,3-b]pyrazin-2(1H)-one]
- GI50 (HCC70 [2]): 94.2 nM
- CalX (minimum compound concentration required to double the levels of caspase 3/7) (BT-20): 0.6025 µM
- CalX (minimum compound concentration required to double the levels of caspase 3/7) (BT-549): ≥10 µM
- CalX (minimum compound concentration required to double the levels of caspase 3/7) (CAL-120): ≥10 µM
- CalX (minimum compound concentration required to double the levels of caspase 3/7) (CAL-148): 0.1583 µM
- CalX (minimum compound concentration required to double the levels of caspase 3/7) (CAL-51): 0.3611 µM
- CalX (minimum compound concentration required to double the levels of caspase 3/7) (CAL-85-1): ≥10 µM
- CalX (minimum compound concentration required to double the levels of caspase 3/7) (DU4475): 0.9448 µM
- CalX (minimum compound concentration required to double the levels of caspase 3/7) (HCC1143): ≥10 µM
- CalX (minimum compound concentration required to double the levels of caspase 3/7) (HCC1187): 0.6418 µM
- CalX (minimum compound concentration required to double the levels of caspase 3/7) (HCC1806 [5]): ≥10 µM
- CalX (minimum compound concentration required to double the levels of caspase 3/7) (HCC1937): ≥10 µM
- CalX (minimum compound concentration required to double the levels of caspase 3/7) (HCC2157): 1.3472 µM
- CalX (minimum compound concentration required to double the levels of caspase 3/7) (HCC38): ≥10 µM
- CalX (minimum compound concentration required to double the levels of caspase 3/7) (HCC70 [6]): ≥10 µM
- CalX (minimum compound concentration required to double the levels of caspase 3/7) (HDQ-P1): ≥10 µM
- CalX (minimum compound concentration required to double the levels of caspase 3/7) (HS578T): ≥10 µM
- CalX (minimum compound concentration required to double the levels of caspase 3/7) (MB157 [7]): ≥10 µM
- CalX (minimum compound concentration required to double the levels of caspase 3/7) (MDA-MB-157): ≥10 µM
- CalX (minimum compound concentration required to double the levels of caspase 3/7) (MDA-MB-231): ≥10 µM
- CalX (minimum compound concentration required to double the levels of caspase 3/7) (MDA-MB-436): ≥10 µM
- CalX (minimum compound concentration required to double the levels of caspase 3/7) (MDA-MB-468 [8]): ≥10 µM
- CalX (minimum compound concentration required to double the levels of caspase 3/7) (MT-3): 2.4106 µM
